Results: publication PMC13095408, “DBeQ derivative targets vacuolar protein sorting 4 functions in cancer cells and suppresses tumor growth in mice” (The Journal of Pharmacology and Experimental Therapeutics, 2025)

Columns and labels:
VPS4B = target: T1, VPS4B (Homo sapiens, UniProt O75351); assay: VPS4B ATPase activity, EnzChek Phosphate assay; type: biochemical; design: His tag (pET28a vector-encoded) (N); made in house; host or cells: Escherichia coli BL21(DE3)
T1 sequence (O75351 1-444): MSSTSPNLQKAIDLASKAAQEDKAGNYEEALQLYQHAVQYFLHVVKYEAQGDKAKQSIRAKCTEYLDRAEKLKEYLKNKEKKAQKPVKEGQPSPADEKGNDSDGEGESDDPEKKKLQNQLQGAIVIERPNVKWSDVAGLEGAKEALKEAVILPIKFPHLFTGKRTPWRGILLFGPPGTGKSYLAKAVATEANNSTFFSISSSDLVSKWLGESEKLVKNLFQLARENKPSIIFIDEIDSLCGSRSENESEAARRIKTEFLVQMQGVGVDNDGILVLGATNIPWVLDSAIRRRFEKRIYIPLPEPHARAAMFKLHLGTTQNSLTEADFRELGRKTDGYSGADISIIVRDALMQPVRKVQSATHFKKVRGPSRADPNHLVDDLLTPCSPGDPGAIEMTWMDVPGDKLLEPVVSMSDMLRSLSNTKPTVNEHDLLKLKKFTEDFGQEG
Experimental: VPS4B and VCP ATPase activities were measured using the EnzChek Phosphate assay for the quantification of released phosphate. Assay buffers were based on literature precedents ([Cupido et al, 2019], [2021]) as follows: VPS4B buffer (20 mM HEPES-KOH, pH 7.4, 25 mM KOAc, 2 mM MgCl2, 5 mM (NH4)2SO4, 0.5 mM CaCl2, 2.5 mM DTT, 0.1 mg/mL BSA, 0.005% v/v Triton X-100), VCP buffer (20 mM HEPES-NaOH, pH 7.4, 20 mM NaCl, 10 mM MgCl2, 5 mM (NH4)2SO4, 0.5 mM CaCl2, 2.5 mM DTT, 0.1 mg/mL BSA, 0.005% v/v Triton X-100). In black clear-bottom 384-well plates, 22.5 μL of 5% DMSO or 40× test compounds diluted in the respective assay buffer was added to each well. ATPases were diluted to 1 μM in the respective buffers containing 2× EnzChek Phosphate assay coupling reagents of 400 μM MESG and 2 U of PNP, then 25 μL was added to each well. Plates were mixed at 1000 rpm for 30 minutes at RT while being protected from light. The reaction was initiated by adding 2.5 μL of 20 mM MgATP or water followed by mixing at 1200 rpm for 30 seconds at RT. Plates were measured at 360 nm using a CLARIOstar plate reader (BMG LABTECH) for 20 minutes at 37 °C. ATPase activity was calculated as the amount of phosphate released over a 5-minute interval under linear initial velocity conditions. The remaining ATPase activity was calculated by normalizing compound-treated activity values to the DMSO control. IC50 was calculated by fitting normalized values to a sigmoidal dose-response curve with Hill slope = −1 using Graph Pad Prism 10.0.
To identify VPS4i, we developed enzyme- and cell-based VPS4 functional assays to serve as VPS4i-screening platforms. For the enzyme-based assay, we used the colorimetric EnzChek Phosphate assay that detects free phosphate with the advantage of continuous measurement of ATP hydrolysis over time. […] Due to the high sequence and structural similarity of AAA-ATPases, we also established a VCP ATPase assay to evaluate hit selectivity. […] For the cell-based assay, our approach was based on how VPS4 inhibition causes the accumulation of ESCRT-III ([Babst et al, 1998]; [Katoh et al, 2003]). We used an N-terminal GFP-tagged CHMP4B reporter system because it is the most abundant ESCRT-III subunit ([Katoh et al, 2004]; [Teis et al, 2008]). Our aim was to test compounds under short-term serum and amino acid starvation to stimulate ESCRT activity for easier detection of inhibitors ([Takahashi et al, 2018], [2019]). […] Overall, we established 2 systems for VPS4i screening, a VPS4B ATPase activity assay and a GFP-CHMP4B accumulation cell-based assay.

[1] = tested on: GFP-CHMP4B-expressing U2OS cells; assay: GFP-CHMP4B accumulation cell-based assay (high-content microscopy)
Experimental: Plates were then scanned using the 20× objective for 1 hour with ≥100 cells/well across 6 fields/well. […] For all other assays, the cells were cultured overnight in black glass-bottom 96-well plates (Cellvis; P96-1.5H-N) then stained, rinsed, and treated with SM containing the indicated compounds (0.1% DMSO or 0.1% DMSO/0.1% ethanol [vehicle] final). Plates were scanned using the 20× NA .70 objective at the indicated intervals with ≥ 300 cells/well across 3 fields/well. […]

[2] = remaining ATPase activity, screened at 5 μM, mean ± SD, Table 1
[3] = screened at 1 μM, starvation media, 1 hour, foci intensity per cell normalized to 4-107, mean ± SD, Table 1
[4] = screened at 5 µM, mean ± S.D., Supplemental Table 2
[5] = screened at 1 µM, mean ± S.D., Supplemental Table 2

Row | Compound | VPS4B ATPase (% DMSO) (VPS4B; [4]) | GFP-CHMP4B (% 4-107) [1, 5] [% 4-107] | also measured
1 | COc1cccc2c(NCc3ccccc3)nc(NCc3ccccc3)nc12 [Compound 4] | – | – | VPS4B ATPase (% DMSO) (VPS4B; [2]): 75.23 ± 0.63 % DMSO; VPS4B ATPase (% DMSO) (VPS4B; screened at 5 µM, mean ± S.D., Supplemental Table 2, listed as 5-133): 75.23 ± 0.63 % DMSO; GFP-CHMP4B (% 4-107) ([1]; screened at 1 µM, mean ± S.D., Supplemental Table 2, listed as 5-133): 2.92 ± 2.81 % 4-107; GFP-CHMP4B (% 4-107) [1, 3]: 2.92 ± 2.81 % 4-107
2 | COc1cccc2c(NCc3cccc(C(=O)O)c3)nc(NCc3cccc(C(=O)O)c3)nc12 [Compound 4-131-iv] | 105.12 ± 0.39 | 1.10 ± 0.68 | –
3 | COc1cccc2c(NCc3ccccc3)nc(Cl)nc12 [Compound 3] | 71.88 ± 3.41 | – | VPS4B ATPase (% DMSO) (VPS4B; [2]): 71.88 ± 3.41 % DMSO; GFP-CHMP4B (% 4-107) ([1]; screened at 1 µM, mean ± S.D., Supplemental Table 2, listed as 5-125): 3.86 ± 2.41 % 4-107; GFP-CHMP4B (% 4-107) [1, 3]: 3.86 ± 2.41 % 4-107
4 | NCc1ccccc1 [Compound 2] | 55.31 ± 5.04 | 6.69 ± 3.07 | VPS4B ATPase (% DMSO) (VPS4B; [2]): 55.31 ± 5.04 % DMSO; GFP-CHMP4B (% 4-107) [1, 3]: 6.69 ± 3.07 % 4-107
5 | COc1cccc2c(NCc3cccc(OC(F)(F)F)c3)nc(NCc3ccccc3)nc12.Cl [Compound 5-33-iv] | 25.77 ± 2.48 | 5.27 ± 1.53 | –
6 | COC(=O)c1ccc2ccn(-c3nc(NCCc4ccc(S(N)(=O)=O)cc4)c4cccc(OC)c4n3)c2c1 [Compound 5-43-iii] | 94.98 ± 0.53 | 3.01 ± 1.98 | –
7 | COc1cccc2c(NCc3ccccc3)nc(-c3cccc4ccccc34)nc12 [Compound 10] | 49.12 ± 2.89 | 3.97 ± 0.16 | VPS4B ATPase (% DMSO) (VPS4B; [2]): 49.12 ± 2.89 % DMSO; GFP-CHMP4B (% 4-107) [1, 3]: 3.97 ± 0.16 % 4-107
8 | COc1cccc2c(NCc3ccccc3)nc(-n3ccc4cc(C(=O)O)ccc43)nc12 [Compound 5-41-iv] | 87.4 ± 1.43 | 1.29 ± 1.06 | –
9 | COc1cccc2c(NCc3ccccc3)nc(NCc3cccc(OC(F)(F)F)c3)nc12 [Compound 16] | – | – | VPS4B ATPase (% DMSO) (VPS4B; [2]): 41.50 ± 2.98 % DMSO; VPS4B ATPase (% DMSO) (VPS4B; screened at 5 µM, mean ± S.D., Supplemental Table 2, listed as 7-07): 41.50 ± 2.98 % DMSO; GFP-CHMP4B (% 4-107) ([1]; screened at 1 µM, mean ± S.D., Supplemental Table 2, listed as 7-07): 7.52 ± 1.95 % 4-107; GFP-CHMP4B (% 4-107) [1, 3]: 7.52 ± 1.95 % 4-107

Further lines, with some results ahead:

Row | VPS4B ATPase (% DMSO) (VPS4B; [4]) | Compound | GFP-CHMP4B (% 4-107) [1, 5] [% 4-107] | also measured
10 | 86.08 ± 7.25 | COc1cccc2c(NCc3ccc(S(N)(=O)=O)cc3)nc(Cl)nc12 [Compound 5-17] | 2.87 ± 0.27 | –
11 | 49.27 ± 0.19 | COc1cccc2c(NCc3ccccc3)nc(N[C@@H](C)c3cccc4ccccc34)nc12 [Compound 5-101] | 2.43 ± 1.02 | –
12 | 37.77 ± 2.37 | COc1cccc2c(NCc3ccccc3)nc(NC(c3ccccc3)c3ccccc3)nc12 [Compound 7-23] | 23.20 ± 6.42 | –
13 | 90.05 ± 5.58 | COc1cccc2c(NCc3ccccc3)nc(-n3ccc4c(C(N)=O)cccc43)nc12 [Compound 5-139] | 1.75 ± 0.11 | –
14 | 90.35 ± 0.07 | COc1cccc2c(NCCc3cccnc3)nc(-n3ccc4cncnc43)nc12 [Compound 5-63] | 5.28 ± 0.27 | –
15 | 89.36 ± 2.84 | COc1ncnc2c1ccn2-c1nc(NCCc2cccnc2)c2cccc(OC)c2n1 [Compound 5-65] | 1.69 ± 0.46 | –
16 | 41.71 ± 2.35 | COc1cccc2c(NCCc3ccccc3)nc(NCc3ccccc3)nc12 [Compound 5-73] | 5.34 ± 1.17 | –
17 | 91.51 ± 3.26 | COc1ncnc2c1ccn2-c1nc(NCc2ccccc2)c2cccc(OC)c2n1 [Compound 5-51] | 2.51 ± 1.24 | –
18 | 30.96 ± 1.37 | COc1cccc2c(NCCc3ccccc3)nc(NCCc3ccccc3)nc12 [Compound 5-03] | 2.31 ± 1.75 | –
19 | 58.00 ± 2.01 | COc1cccc2c(NCc3ccccc3)nc(N[C@@H](C)c3ccc4ccccc4c3)nc12 [Compound 5-93] | 5.34 ± 4.29 | –
20 | 75.99 ± 2.63 | COc1cccc2c(NCCc3ccccc3)nc(NCc3nc4ccccc4s3)nc12 [Compound 5-107] | 0.24 ± 0.08 | –
21 | 46.68 ± 2.80 | COc1cccc2c(NCc3ccccc3)nc(N[C@H](C)c3ccccc3)nc12 [Compound 5-89] | 9.13 ± 2.82 | –
22 | 45.77 ± 2.14 | COc1cccc2c(NCCc3ccccc3)nc(N[C@H](C)c3ccc4ccccc4c3)nc12 [Compound 5-99] | 3.40 ± 1.02 | –
23 | 53.27 ± 1.65 | COc1ccc2cccc(Nc3nc(NCc4ccccc4)c4cccc(OC)c4n3)c2c1 [Compound 5-119] | 2.49 ± 0.70 | –
24 | 45.53 ± 1.40 | COc1cccc2c(NCc3ccccc3)nc(NCCc3ccccc3)nc12 [Compound 5-75] | 2.25 ± 1.07 | –
25 | 56.25 ± 2.23 | COc1cccc2c(NCc3ccccc3)nc(NCc3nc4ccccc4s3)nc12 [Compound 5-105] | 1.30 ± 1.20 | –
26 | 51.60 ± 0.35 | COc1cccc2c(NCc3ccccc3)nc(Nc3ccc4scnc4c3)nc12 [Compound 5-67] | 1.60 ± 0.33 | –
27 | 51.27 ± 1.54 | COc1cccc2c(NCc3ccccc3)nc(Nc3ccc4ncsc4c3)nc12 [Compound 5-69] | 2.10 ± 1.22 | –
